Results published in US7803992B2, “Methods and compositions for expressing an herbicide-tolerant polynucleotide” (Pioneer Hi-Bred International, Inc., priority 2005, dated 2010).

Assays:
[1] = system: parent elite stiff stalk inbred corn; experiment: Postemergence herbicide application in greenhouse: fresh shoot weight and visual injury; format: in vivo; settings: for pest or weed control at 200 g/ha: Zea mays, post-emergence, read-out: % Visual Injury; for Fresh Weight: weighed 2 weeks after treatment, untreated 76.4 g
[2] = system: Heterozygous GAT-HRA corn; experiment: as above; format: in vivo; settings: for pest or weed control at 200 g/ha: Zea mays, post-emergence, read-out: % Visual Injury; for Fresh Weight: weighed 2 weeks after treatment, untreated 98.8 g
[3] = system: parent elite stiff stalk inbred corn; experiment: Preemergence herbicide application in greenhouse: fresh shoot weight and visual injury; format: in vivo; settings: for pest or weed control at 200 g/ha: Zea mays, pre-emergence, 672 h, read-out: % Visual Injury; for Fresh Weight: fresh shoots weighed 4 weeks after treatment, untreated 36.7 g
GAT-HRA maize = experiment: Evaluation of herbicide tolerance, spray at V2 stage, injury symptoms after 10-14 days; format: in vivo; settings: postemergence; tribenuron (Express) 200, chlorimuron (Classic) 200, imazapyr (Arsenal) 200, metsulfuron-methyl (Ally) 35 g ai/ha
Description: GAT-HRA maize plants were evaluated for tolerance to glyphosate and other herbicides. One protocol used in this evaluation was as follows. At the V2 stage (Ritchie and Hanway (1982), “How a corn plant develops” Spec. Rep. 48. (Coop. Ext. Ser., Iowa State Univ., Ames, Iowa)), plant heights were measured and herbicides were applied by spray application. Ten to fourteen days after the spray application, the transgenic plants were evaluated for injury symptoms and measured for plant height again in order to determine plant growth rates.
Plants were then evaluated at various times after treatment, such as 10 or 14 days after treatment.

[4] = system: Heterozygous GAT-HRA corn; experiment: Preemergence herbicide application in greenhouse: fresh shoot weight and visual injury; format: in vivo; settings: for pest or weed control at 200 g/ha: Zea mays, pre-emergence, 672 h, read-out: % Visual Injury; for Fresh Weight: fresh shoots weighed 4 weeks after treatment, untreated 47.0 g
control maize = experiment: Evaluation of herbicide tolerance, spray at V2 stage, injury symptoms after 10-14 days; format: in vivo; settings: postemergence; tribenuron (Express) 200, chlorimuron (Classic) 200, imazapyr (Arsenal) 200, metsulfuron-methyl (Ally) 35 g ai/ha
Description: At the V2 stage (Ritchie and Hanway (1982), “How a corn plant develops” Spec. Rep. 48. (Coop. Ext. Ser., Iowa State Univ., Ames, Iowa)), plant heights were measured and herbicides were applied by spray application. Ten to fourteen days after the spray application, the transgenic plants were evaluated for injury symptoms and measured for plant height again in order to determine plant growth rates.

STS ® soybeans = experiment: Postemergence herbicide treatment of soybeans in greenhouse, visual injury; format: in vivo, soybean
Excerpt: When possible, containers were thinned to two uniform plants.

[5] = system: Wild Type soybeans (Jack); experiment: as above; format: in vivo, soybean; settings: for % Visual Injury: postemergence, glyphosate 8960, tribenuron-methyl 35, rimsulfuron 35 g/ha
Description: (§1) Young regenerated transgenic plants were sprayed with 1× glyphosate (1× rate of glyphosate is 1120 g/ha of glyphosate isopropylamine) to cull segregants. Four replications were performed for each treatment. Plants were then treated with various herbicides, including glyphosate and ALS-inhibitor herbicides.
(§2) Six soybean seeds from each variety to be assayed were planted 1 cm deep in 5.5 (13.97 cm) inch square plastic container of a synthetic growth medium. […] When possible, containers were thinned to two uniform plants. Non-transgenic lines were thinned to two uniform plants per container.
(§3) Results are expressed below in Table 11 as the mean of four replications.

GAT-HRA soybeans = experiment: as above; format: in vivo, soybean; settings: for % Visual Injury: postemergence, glyphosate 8960, tribenuron-methyl 35, rimsulfuron 35 g/ha
Description: as §1, §2, §3

[6] = postemergence, 200 g/ha (glyphosate 3472 g ae/ha, glufosinate ammonium 1870 g/ha), mean of four replications
[7] = preemergence, 200 g/ha, mean of four replications
[8] = postemergence, 200 g/ha (glyphosate 3472 g ae/ha, glufosinate ammonium 1870 g/ha), 0% no injury, 100% plant death, mean of four replications
[9] = preemergence, 200 g/ha, 0% no injury, 100% plant death, mean of four replications

CCOC(=O)c1ccccc1S(=O)(=O)NC(=O)Nc1nc(Cl)cc(OC)n1 [Chlorimuron-ethyl]
pest or weed control at 200 g/ha ([1]; […]): 93%
Fresh Weight [1, 6]: 10.1 g
pest or weed control at 200 g/ha ([2]; […]): 15%
Fresh Weight [2, 6]: 95.5 g
pest or weed control at 200 g/ha [3]: 100%
Fresh Weight [3, 7]: 9.3 g
damage from the treatment (GAT-HRA maize): no significant damage
pest or weed control at 200 g/ha [4]: 10%
Fresh Weight [4, 7]: 39.4 g
damage from the treatment (control maize): severely damaged or killed

CC(C)C1(C)N=C(c2ncccc2C(=O)O)NC1=O (centres unmarked) [Imazapyr]
pest or weed control at 200 g/ha [1, 8]: 100%
Fresh Weight [1, 6]: 2.3 g
pest or weed control at 200 g/ha [2, 8]: 1%
Fresh Weight [2, 6]: 97.8 g
pest or weed control at 200 g/ha [3, 9]: 99%
Fresh Weight [3, 7]: 0.3 g
damage from the treatment (GAT-HRA maize): no significant damage
pest or weed control at 200 g/ha [4, 9]: 30%
Fresh Weight [4, 7]: 44.2 g
damage from the treatment (control maize): severely damaged or killed

COC(=O)c1ccccc1S(=O)(=O)NC(=O)Nc1nc(C)nc(OC)n1 [Metsulfuron-methyl]
pest or weed control at 200 g/ha [1, 8]: 100%
Fresh Weight [1, 6]: 1.9 g
pest or weed control at 200 g/ha [2, 8]: 14%
Fresh Weight [2, 6]: 75.5 g
pest or weed control at 200 g/ha [3, 9]: 100%
Fresh Weight [3, 7]: 0.0 g
damage from the treatment (GAT-HRA maize): no significant damage
pest or weed control at 200 g/ha [4, 9]: 0%
Fresh Weight [4, 7]: 41.1 g
damage from the treatment (control maize): severely damaged or killed

CCS(=O)(=O)c1nc2ccccn2c1S(=O)(=O)NC(=O)Nc1nc(OC)cc(OC)n1 [Sulfosulfuron]
pest or weed control at 200 g/ha [1, 8]: 97%
Fresh Weight [1, 6]: 4.0 g
pest or weed control at 200 g/ha [2, 8]: 3%
Fresh Weight [2, 6]: 105.5 g
pest or weed control at 200 g/ha [3, 9]: 100%
Fresh Weight [3, 7]: 1.0 g
pest or weed control at 200 g/ha [4, 9]: 18%
Fresh Weight [4, 7]: 50.6 g

COC(=O)c1sccc1S(=O)(=O)NC(=O)Nc1nc(C)nc(OC)n1 [Thifensulfuron-methyl]
pest or weed control at 200 g/ha [1, 8]: 98%
Fresh Weight [1, 6]: 4.2 g
pest or weed control at 200 g/ha [2, 8]: 10%
Fresh Weight [2, 6]: 86.6 g
pest or weed control at 200 g/ha [3, 9]: 88%
Fresh Weight [3, 7]: 15.2 g
pest or weed control at 200 g/ha [4, 9]: 3%
Fresh Weight [4, 7]: 36.0 g

COc1nc(C)nc(NC(=O)NS(=O)(=O)c2ccccc2OCCCl)n1 [Triasulfuron]
pest or weed control at 200 g/ha [1, 8]: 97%
Fresh Weight [1, 6]: 6.4 g
pest or weed control at 200 g/ha [2, 8]: 6%
Fresh Weight [2, 6]: 90.3 g
pest or weed control at 200 g/ha [3, 9]: 89%
Fresh Weight [3, 7]: 14.1 g
pest or weed control at 200 g/ha [4, 9]: 12%
Fresh Weight [4, 7]: 47.7 g

COC(=O)c1ccccc1S(=O)(=O)NC(=O)N(C)c1nc(C)nc(OC)n1 [Tribenuron-methyl]
pest or weed control at 200 g/ha [1, 8]: 100%
Fresh Weight [1, 6]: 1.8 g
pest or weed control at 200 g/ha [2, 8]: 8%
Fresh Weight [2, 6]: 90.8 g
pest or weed control at 200 g/ha [3, 9]: 66%
Fresh Weight [3, 7]: 32.1 g
% Visual Injury (STS ® soybeans; STS ® line 25, glyphosate 8960, tribenuron-methyl 35, rimsulfuron 35 g/ha): 87%
% Visual Injury (STS ® soybeans; STS ® line 46, glyphosate 8960, tribenuron-methyl 35, rimsulfuron 35 g/ha): 88%
% Visual Injury (STS ® soybeans; STS ®, mean, glyphosate 8960, tribenuron-methyl 35, rimsulfuron 35 g/ha): 87%
pest or weed control at 200 g/ha [4, 9]: 25%
Fresh Weight [4, 7]: 46.8 g
% Visual Injury ([5]; Wild Type line 82): 97%
% Visual Injury ([5]; Wild Type line Jack): 97%
% Visual Injury ([5]; Wild Type, mean): 97%
damage from herbicide treatment ([5]; herbicide-treated non-transgenic control soybeans, 35 g/ha): killed
damage from herbicide treatment (GAT-HRA soybeans; 35 g/ha, four replications): no significant damage
% Visual Injury (GAT-HRA soybeans; event 59, mean): 59%
% Visual Injury (GAT-HRA soybeans; event 59 line 21): 58%
% Visual Injury (GAT-HRA soybeans; event 59 line 28): 60%
% Visual Injury (GAT-HRA soybeans; event 60, mean): 55%
% Visual Injury (GAT-HRA soybeans; event 60 line 07): 46%
% Visual Injury (GAT-HRA soybeans; event 60 line 11): 71%
% Visual Injury (GAT-HRA soybeans; event 60 line 22): 45%
% Visual Injury (GAT-HRA soybeans; event 60 line 35): 49%
% Visual Injury (GAT-HRA soybeans; event 60 line 41): 38%
% Visual Injury (GAT-HRA soybeans; event 60 line 46): 49%
% Visual Injury (GAT-HRA soybeans; event 60 line 70): 40%
% Visual Injury (GAT-HRA soybeans; event 60 line 75): 69%
% Visual Injury (GAT-HRA soybeans; event 60 line 77): 56%
% Visual Injury (GAT-HRA soybeans; event 60 line 79): 69%
% Visual Injury (GAT-HRA soybeans; event 60 line 82): 61%
% Visual Injury (GAT-HRA soybeans; event 60 line 84): 71%
% Visual Injury (GAT-HRA soybeans; event 61, mean): 54%
% Visual Injury (GAT-HRA soybeans; event 61 line 02): 41%
% Visual Injury (GAT-HRA soybeans; event 61 line 02B): 40%
% Visual Injury (GAT-HRA soybeans; event 61 line 05): 55%
% Visual Injury (GAT-HRA soybeans; event 61 line 14): 65%
% Visual Injury (GAT-HRA soybeans; event 61 line 18): 69%
% Visual Injury (GAT-HRA soybeans; event 61 line 24): 63%
% Visual Injury (GAT-HRA soybeans; event 61 line 33): 80%
% Visual Injury (GAT-HRA soybeans; event 61 line 34): 76%
% Visual Injury (GAT-HRA soybeans; event 61 line 47): 36%
% Visual Injury (GAT-HRA soybeans; event 61 line 49): 54%
% Visual Injury (GAT-HRA soybeans; event 61 line 51): 60%
% Visual Injury (GAT-HRA soybeans; event 61 line 60): 45%
% Visual Injury (GAT-HRA soybeans; event 61 line 62): 43%
% Visual Injury (GAT-HRA soybeans; event 61 line 99): 34%
% Visual Injury (GAT-HRA soybeans; event 64, mean): 43%
% Visual Injury (GAT-HRA soybeans; event 64 line 41): 55%
% Visual Injury (GAT-HRA soybeans; event 64 line 47): 34%

COc1cc(OC)nc(NC(=O)NS(=O)(=O)c2ncccc2OCC(F)(F)F)n1 [Trifloxysulfuron Na^+, Trifloxysulfuron]
% Visual Injury [1, 8]: 100%
Fresh Weight [1, 6]: 1.0 g
% Visual Injury [2, 8]: 29%
Fresh Weight [2, 6]: 86.6 g
% Visual Injury [3, 9]: 100%
Fresh Weight [3, 7]: 0.0 g
% Visual Injury [4, 9]: 0%
Fresh Weight [4, 7]: 50.8 g

COC(=O)c1cccc(C)c1S(=O)(=O)NC(=O)Nc1nc(OCC(F)(F)F)nc(N(C)C)n1 [Triflusulfuron-methyl]
% Visual Injury [1, 8]: 100%
Fresh Weight [1, 6]: 2.1 g
% Visual Injury [2, 8]: 8%
Fresh Weight [2, 6]: 110.9 g
% Visual Injury [3, 9]: 100%
Fresh Weight [3, 7]: 26.3 g
% Visual Injury [4, 9]: 5%
Fresh Weight [4, 7]: 53.5 g

Imazamethabenz-methyl
% Visual Injury [1, 8]: 11%
Fresh Weight [1, 6]: 66.9 g
% Visual Injury [2, 8]: 16%
Fresh Weight [2, 6]: 95.0 g
% Visual Injury [3, 9]: 61%
Fresh Weight [3, 7]: 36.2 g
% Visual Injury [4, 9]: 15%
Fresh Weight [4, 7]: 48.5 g
